{"source": "ChEMBL document CHEMBL1149582", "about": "“Synthesis of penaresidin derivatives and its biological activity” (Bioorg Med Chem, 2007)", "key": {"L1210": {"tested_on": "L1210", "experiment": "Cytotoxicity against mouse L1210 cells", "assay_type": "functional, cell-based"}, "KB": {"tested_on": "KB", "experiment": "Cytotoxicity against human KB cells", "assay_type": "functional, cell-based"}, "A549": {"tested_on": "A549", "experiment": "Cytotoxicity against human A549 cells", "assay_type": "functional, cell-based"}, "[1]": {"experiment": "Cytotoxicity against human […] cells", "assay_type": "functional, cell-based"}, "Bacillus subtilis": {"tested_on": "Bacillus subtilis", "experiment": "Antibacterial activity against Bacillus subtilis […]", "assay_type": "functional"}, "Escherichia coli": {"tested_on": "Escherichia coli", "experiment": "Antibacterial activity against Escherichia coli ATCC 25922", "assay_type": "functional"}, "Micrococcus luteus": {"tested_on": "Micrococcus luteus", "experiment": "Antibacterial activity against Micrococcus luteus IFM 2066", "assay_type": "functional"}, "Staphylococcus aureus": {"tested_on": "Staphylococcus aureus", "experiment": "Antibacterial activity against Staphylococcus aureus 209P", "assay_type": "functional"}, "Cryptococcus neoformans": {"tested_on": "Cryptococcus neoformans", "experiment": "Antibacterial activity against Cryptococcus neoformans IFM 46914", "assay_type": "functional"}, "Candida albicans": {"tested_on": "Candida albicans", "experiment": "Antibacterial activity against Candida albicans ATCC 90028", "assay_type": "functional"}, "Aspergillus niger": {"tested_on": "Aspergillus niger", "experiment": "Antibacterial activity against Aspergillus niger IFM 5368", "assay_type": "functional"}}}
{"molecule": "CC(C)CC[C@H](O)CCCCCCCCC[C@@H]1N[C@@H](CO)[C@@H]1O", "values": [{"measurement": "IC50", "setting": "L1210", "result": 2.9, "unit": "µg/mL"}, {"measurement": "IC50", "setting": "KB", "result": "> 10", "unit": "µg/mL"}, {"measurement": "IC50", "setting": "A549", "result": "> 2", "unit": "µg/mL"}, {"measurement": "IC50", "setting": "[1]", "result": "> 2", "unit": "µg/mL"}, {"measurement": "MIC", "setting": "Bacillus subtilis", "result": "> 16.7", "unit": "µg/mL"}, {"measurement": "MIC", "setting": "Escherichia coli", "result": "> 16.7", "unit": "µg/mL"}, {"measurement": "MIC", "setting": "Micrococcus luteus", "result": "> 16.7", "unit": "µg/mL"}, {"measurement": "MIC", "setting": "Staphylococcus aureus", "result": "> 16.7", "unit": "µg/mL"}, {"measurement": "MIC", "setting": "Cryptococcus neoformans", "result": "> 16.7", "unit": "µg/mL"}, {"measurement": "MIC", "setting": "Candida albicans", "result": "> 16.7", "unit": "µg/mL"}, {"measurement": "MIC", "setting": "Aspergillus niger", "result": "> 16.7", "unit": "µg/mL"}]}
{"molecule": "CCCCCCCCCCCCCC[C@H]1N[C@@H](CO)[C@@H]1O", "values": [{"measurement": "IC50", "setting": "L1210", "result": 1.6, "unit": "µg/mL"}, {"measurement": "IC50", "setting": "KB", "result": 3.2, "unit": "µg/mL"}, {"measurement": "IC50", "setting": "A549", "result": 0.22, "unit": "µg/mL"}, {"measurement": "IC50", "setting": "[1]", "result": 0.17, "unit": "µg/mL"}, {"measurement": "MIC", "setting": "Bacillus subtilis", "result": 4.18, "unit": "µg/mL"}, {"measurement": "MIC", "setting": "Escherichia coli", "result": 8.35, "unit": "µg/mL"}, {"measurement": "MIC", "setting": "Micrococcus luteus", "result": 4.18, "unit": "µg/mL"}, {"measurement": "MIC", "setting": "Staphylococcus aureus", "result": 8.35, "unit": "µg/mL"}, {"measurement": "MIC", "setting": "Cryptococcus neoformans", "result": "> 16.7", "unit": "µg/mL"}, {"measurement": "MIC", "setting": "Candida albicans", "result": "> 16.7", "unit": "µg/mL"}, {"measurement": "MIC", "setting": "Aspergillus niger", "result": "> 16.7", "unit": "µg/mL"}]}
{"molecule": "CCCCCCCCCCCCCC[C@H]1N[C@H](CO)[C@H]1O", "values": [{"measurement": "IC50", "setting": "L1210", "result": 4.5, "unit": "µg/mL"}, {"measurement": "IC50", "setting": "KB", "result": 6, "unit": "µg/mL"}, {"measurement": "IC50", "setting": "A549", "result": "> 2", "unit": "µg/mL"}, {"measurement": "IC50", "setting": "[1]", "result": 1.23, "unit": "µg/mL"}, {"measurement": "MIC", "setting": "Bacillus subtilis", "result": 8.35, "unit": "µg/mL"}, {"measurement": "MIC", "setting": "Escherichia coli", "result": "> 16.7", "unit": "µg/mL"}, {"measurement": "MIC", "setting": "Micrococcus luteus", "result": 4.18, "unit": "µg/mL"}, {"measurement": "MIC", "setting": "Staphylococcus aureus", "result": 16.7, "unit": "µg/mL"}, {"measurement": "MIC", "setting": "Cryptococcus neoformans", "result": "> 16.7", "unit": "µg/mL"}, {"measurement": "MIC", "setting": "Candida albicans", "result": "> 16.7", "unit": "µg/mL"}, {"measurement": "MIC", "setting": "Aspergillus niger", "result": "> 16.7", "unit": "µg/mL"}]}
{"molecule": "CCCCCCCCCCCCCC[C@@H]1N[C@H](CO)[C@@H]1O", "values": [{"measurement": "IC50", "setting": "L1210", "result": 7.5, "unit": "µg/mL"}, {"measurement": "IC50", "setting": "KB", "result": "> 10", "unit": "µg/mL"}, {"measurement": "IC50", "setting": "A549", "result": "> 2", "unit": "µg/mL"}, {"measurement": "IC50", "setting": "[1]", "result": "> 2", "unit": "µg/mL"}, {"measurement": "MIC", "setting": "Bacillus subtilis", "result": "> 16.7", "unit": "µg/mL"}, {"measurement": "MIC", "setting": "Escherichia coli", "result": "> 16.7", "unit": "µg/mL"}, {"measurement": "MIC", "setting": "Micrococcus luteus", "result": "> 16.7", "unit": "µg/mL"}, {"measurement": "MIC", "setting": "Staphylococcus aureus", "result": "> 16.7", "unit": "µg/mL"}, {"measurement": "MIC", "setting": "Cryptococcus neoformans", "result": "> 16.7", "unit": "µg/mL"}, {"measurement": "MIC", "setting": "Candida albicans", "result": "> 16.7", "unit": "µg/mL"}, {"measurement": "MIC", "setting": "Aspergillus niger", "result": "> 16.7", "unit": "µg/mL"}]}
{"molecule": "CCCCCCCCCCCCCC[C@H]1N[C@@H](CO)[C@H]1O", "values": [{"measurement": "IC50", "setting": "L1210", "result": "> 10", "unit": "µg/mL"}, {"measurement": "IC50", "setting": "KB", "result": "> 10", "unit": "µg/mL"}, {"measurement": "IC50", "setting": "A549", "result": 1.38, "unit": "µg/mL"}, {"measurement": "IC50", "setting": "[1]", "result": 1.65, "unit": "µg/mL"}]}
{"molecule": "CCCCCCCCCCCCCC[C@@H]1N[C@@H](CO)[C@@H]1O", "values": [{"measurement": "IC50", "setting": "L1210", "result": 4.5, "unit": "µg/mL"}, {"measurement": "IC50", "setting": "KB", "result": 3.4, "unit": "µg/mL"}, {"measurement": "IC50", "setting": "A549", "result": 0.34, "unit": "µg/mL"}, {"measurement": "IC50", "setting": "[1]", "result": 0.56, "unit": "µg/mL"}, {"measurement": "MIC", "setting": "Bacillus subtilis", "result": 4.18, "unit": "µg/mL"}, {"measurement": "MIC", "setting": "Escherichia coli", "result": "> 16.7", "unit": "µg/mL"}, {"measurement": "MIC", "setting": "Micrococcus luteus", "result": 1.84, "unit": "µg/mL"}, {"measurement": "MIC", "setting": "Staphylococcus aureus", "result": 8.35, "unit": "µg/mL"}, {"measurement": "MIC", "setting": "Cryptococcus neoformans", "result": "> 16.7", "unit": "µg/mL"}, {"measurement": "MIC", "setting": "Candida albicans", "result": "> 16.7", "unit": "µg/mL"}, {"measurement": "MIC", "setting": "Aspergillus niger", "result": "> 16.7", "unit": "µg/mL"}]}
{"molecule": "CCCCCCCCCCCCCC[C@@H]1N[C@H](CO)[C@H]1O", "values": [{"measurement": "IC50", "setting": "L1210", "result": 4.5, "unit": "µg/mL"}, {"measurement": "IC50", "setting": "KB", "result": "> 10", "unit": "µg/mL"}, {"measurement": "IC50", "setting": "A549", "result": 1.97, "unit": "µg/mL"}, {"measurement": "IC50", "setting": "[1]", "result": 0.79, "unit": "µg/mL"}, {"measurement": "MIC", "setting": "Bacillus subtilis", "result": 16.7, "unit": "µg/mL"}, {"measurement": "MIC", "setting": "Escherichia coli", "result": "> 16.7", "unit": "µg/mL"}, {"measurement": "MIC", "setting": "Micrococcus luteus", "result": 8.35, "unit": "µg/mL"}, {"measurement": "MIC", "setting": "Staphylococcus aureus", "result": "> 16.7", "unit": "µg/mL"}, {"measurement": "MIC", "setting": "Cryptococcus neoformans", "result": "> 16.7", "unit": "µg/mL"}, {"measurement": "MIC", "setting": "Candida albicans", "result": "> 16.7", "unit": "µg/mL"}, {"measurement": "MIC", "setting": "Aspergillus niger", "result": "> 16.7", "unit": "µg/mL"}]}
